In patent US8716355B2, “Hydroxylated tolans and related compounds in the treatment of a cancer” (Kent State University, priority 2007, dated 2014):

Legend:
rat-organ homogenates [1] = conditions: cited from earlier work
rat-organ homogenates [2] = conditions: cited from earlier work; remark: listed apart in the source
rat erythrocyte (RBC) = conditions: cited from earlier work
Vero cells = experiment: Cytotoxicity (CD50) on Vero cells; format: cell-based; conditions: 48 hours of exposure
From the text: See Example II for tumor cell cytotoxicity of these compounds. […] NAB group 32 contains two compounds, Tolan-2 (also designated herein as KST-201) and Stil-2. Based on the NAB, they were classified as topological isomers. However, chemically they differ because Stil-2, a […], contained a double bonded linker, while Tolan-2 contained a triple bonded linker. The cytotoxicity of the two molecules on Vero cells differed markedly: Tolan-2 was less toxic than Stil-2.

HSV-1 = HSV-1 replication in infected Vero cells (plaque assay); format: cell-based, Herpes Simplex Virus-Type 1; conditions: at CD50, 75% and 50% of CD50; 24, 48, 72 h
Protocol: For this purpose HSV-1 replication at 24, 48 and 72 h was examined in the presence or absence of varying concentrations of the polyphenol.
The SI is the ratio of the CD50 divided by a selected inhibitory concentration (IC %).
Viral inhibition by Tolan-3 appeared to occur after viral entry into cells. […] Subsequently, the compound was removed and replaced with culture medium alone, and the incubated continued for 48 or 72 more hrs. In a second experiment, HSV-1 infected Vero cells were incubated with 350 μM Tolan-3 for 48 h. Thereafter, the Tolan-3 was removed and replaced by medium and the incubation continued for an additional 24 h. Viral titers were calculated by a standard plaque assay.

prostate cancer = experiment: Prostate cancer patients (Example VIII A); format: in vivo, human; conditions: daily 10 μg to 5 mg/Kg; no significant differences between the four groups
Protocol: A group of 40 men aged 55-75 suffering from prostate cancer receive a daily dosage of between 10 μg and 5 mg/Kg body weight of KST-201, KST-213, KST-301 or KST-401 (10 patients per compound). Examination of the patients by clinical, radiographic and histopathological tests show significant shrinkage in tumors, and signs of cell death in 38% of the patients; there are no significant differences between the four treatment groups.

bladder cancer = experiment: Bladder cancer patients (Example VIII B); format: in vivo, human; conditions: intravenous 10 μg to 5 mg/kg over three months; for Patients with significant remission: no differences between compounds
Protocol: A group of 20 men and 20 women aged 50-75 with bladder cancer are treated by intravenous injection of between 10 μg and 5 mg/kg of KST-201, KST-213, KST-301 or KST-401. Each compound is given to a group of 5 men and 5 women) over a period of three months. Clinical, radiographic and histopathological tests show significant remission in 35% of patients, accompanied by signs of cell death in 45%. There are no significant differences between the results with the four compounds.

breast cancer = experiment: Breast cancer prevention, skin patch (Example VIII C); format: in vivo, human; conditions: transdermal patch 10 mg to 100 mg daily, one-year study
Protocol: This study investigates whether KST-201, KST-213, KST-301 and KST-401 administered transdermally each day through a skin patch aid in preventing breast cancer or metastatic cancer following cancer therapy. Patches are prepared with a lipophilic carrier which is readily absorbed through the skin (glycerol cold cream containing glycerin and peanut oil). The HT compound is mixed with the lipophilic cream such that each patch comprises 10 mg to 100 mg of active compound. The patch is applied to the skin each day, and rapid absorption occurs. After two hours, the patch is removed.

ovarian cancer = experiment: Ovarian cancer patients (Example VIII D); format: in vivo, human; conditions: daily gelatin capsule 200 mg
Protocol: A study is carried out in a group of 40 women with ovarian cancer of various grades to determine the effect of treatment with compounds of KST-201, KST-213, KST-301 and KST-401. The administration protocol involves daily administration of a gelatin capsule containing 200 mg of active compound.

colon cancer = experiment: Colon cancer patients (Example VIII E); format: in vivo, human; conditions: for Dissemination of the tumors: daily bolus injections (intravenous or intramuscular) of 2 g; for Cancer marker carcinoembryonic antigen (CEA) / Progression of the tumor: intravenous infusion 2 g daily for three weeks
Protocol: Eight patients suffering from advanced colon cancer are treated daily for three weeks with an intravenous infusion of 2 g of the compounds KST-201, KST-213, KST-301 or KST-401 dissolved in saline. Two patients are assigned to each compound. The compounds are dissolved in sterile saline. […] Progression of the tumor is also arrested over the treatment period.
Another eight patients with terminal colon cancer are treated by daily bolus injections (intravenous or intramuscular) of 2 g of KST-201, KST-213, KST-301 or KST-401.

Mushroom tyrosinase = experiment: Inhibition of mushroom tyrosinase activity; format: biochemical; conditions: concentration not given
Protocol: All chemical used for reagents were purchased from Sigma Chemical Company. KST201 at each tested concentration (1000, 250 and 100 μM) was dissolved in 10% ethanol from a master mixture of the drug prepared at 0.1M in 100% ethanol.
Mushroom tyrosinase (Sigma) was diluted in 50 mM phosphate buffer, pH 6.5 to yield a concentration of 16 U/μl. […] A master mix containing 0.5 mM L-DOPA [3,4-dihydroxy-1-phenylalanine], 10 mM Sodium L-tyrosine in 50 mM phosphate buffer, pH 6.5 was prepared. The KST-201 dilutions were preincubated with the enzyme for 20 minutes. The samples were pipetted into 24 well plates and the master mixture added quickly. The reaction was read using a kinetic format in which wells were read every 30 seconds over a course of 10 minutes at a wavelength of 475 nm using a Synergy HT Plate reader. A kinetic curve was generated for each sample compared to a total reaction with mushroom tyrosinase without a drug (total).

Row | Compound | Inhibition (%) of Fe2+ − VitC induced level of MDA at 15 μM, In rat brain (rat-organ homogenates [1]) [%] | Inhibition (%) of Fe2+ − VitC induced level of MDA at 15 μM, In rat kidney (rat-organ homogenates [1]) [%] | Inhibition (%) of Fe2+ − VitC induced level of MDA at 15 μM, In rat liver (rat-organ homogenates [1]) [%] | Inhibition (%) of autooxidation MDA level at 7.5 μM, In rat brain (rat-organ homogenates [2]) [%] | Inhibition (%) of autooxidation MDA level at 7.5 μM, In rat kidney (rat-organ homogenates [2]) [%] | Inhibition (%) of autooxidation MDA level at 7.5 μM, In rat liver (rat-organ homogenates [2]) [%] | Inhibition (%) of RBC hemolysis induced by H2O2 at 4 μM (rat erythrocyte (RBC)) [%] | CD50 (Vero cells) [µM] | Log CD50 (Vero cells) | further results
1 | Oc1ccc(/C=C/c2ccc(O)cc2)cc1 [trans-4,4′-Dihydroxystilbene] | 90.66 | 85.23 | 68.37 | 85.31 | 62.11 | 89.23 | 67.17 |  |  | 
2 | Oc1ccc(C#Cc2ccc(C(F)(F)F)cc2)cc1 [KST-213, 4-hydroxy-4′-trifluoromethyltolan] |  |  |  |  |  |  |  | 48.2 | 1.68 | Effect on HSV-1 viral replication in Vero cells (in words) (HSV-1): substantially inhibited; Patients with significant shrinkage in tumors, and signs of cell death (prostate cancer): 38%; Patients with signs of cell death (bladder cancer): 45%; Patients with significant remission (bladder cancer): 35%; Breast cancer or metastatic cancer in high-risk group (breast cancer): does not show any evidence of breast cancer or other metastatic cancer; Rate of production of ovarian cancer markers (Muc-1, Sp17) (ovarian cancer): significant decrease; Tumor growth during study period (ovarian cancer): Tumors regress or show no further growth; Dissemination of the tumors (colon cancer): dissemination of the tumors is diminished; Cancer marker carcinoembryonic antigen (CEA) (colon cancer): significant reduction; Progression of the tumor (colon cancer): arrested
3 | Oc1cc(O)cc(/C=C/c2cc(O)cc(O)c2)c1 [Stil-4, tetrahydroxystilbene] |  |  |  |  |  |  |  | >200 | 2.30 | 
4 | Oc1cc(O)cc(/C=C/c2ccccc2)c1 [trans-3,5-Dihydroxystilbene] | 12.24 | 0.62 | 24.82 | −5.24 | 14.91 | −5.38 | 19.97 |  |  | 
5 | Oc1ccc(/C=C/c2ccc(O)cc2O)cc1 [trans-2,4,4′-Trihydroxystilbene] | 94.40 | 87.69 | 92.46 | 90.91 | 66.46 | 93.85 | 81.85 |  |  | 
6 | Oc1ccc(/C=C/c2ccccc2)c(O)c1 [trans-2,4-Dihydroxystilbene] | 55.19 | 39.08 | 42.58 | 30.07 | 32.27 | 42.31 | 43.72 |  |  | 
7 | Oc1ccc(/C=C/c2ccccc2)cc1 [trans-4-Hydroxystilbene] | 43.36 | 29.23 | 32.85 | 6.64 | 19.88 | −2.31 | -5.14 |  |  | 
8 | Oc1ccc(/C=C/c2ccccc2)cc1 [Stil-1] |  |  |  |  |  |  |  | 131 | 2.12 | 
9 | Oc1cc(O)cc(C#Cc2cc(O)cc(O)c2)c1 [KST-401, 3,3′,5,5′-tetrahydroxytolan] |  |  |  |  |  |  |  | 103 | 2.01 | Effect on HSV-1 viral replication in Vero cells (in words) (HSV-1): substantial viral inhibition; % inhibition of mushroom tyrosinase activity (Mushroom tyrosinase): 22.7±6.5%; Patients with significant shrinkage in tumors, and signs of cell death (prostate cancer): 38%; Patients with signs of cell death (bladder cancer): 45%; Patients with significant remission (bladder cancer): 35%; Breast cancer or metastatic cancer in high-risk group (breast cancer): does not show any evidence of breast cancer or other metastatic cancer; Rate of production of ovarian cancer markers (Muc-1, Sp17) (ovarian cancer): significant decrease; Tumor growth during study period (ovarian cancer): Tumors regress or show no further growth; Dissemination of the tumors (colon cancer): dissemination of the tumors is diminished; Cancer marker carcinoembryonic antigen (CEA) (colon cancer): significant reduction; Progression of the tumor (colon cancer): arrested
10 | Oc1ccc(/C=C/c2ccccc2)cc1O [trans-3,4-Dihydroxystilbene] | 96.68 | 89.23 | 99.27 |  |  |  | 97.58 |  |  | 
11 | Oc1ccc(/C=C/c2ccc(O)cc2)cc1 [Stil-2] |  |  |  |  |  |  |  | 53.3 | 1.73 | Effect on HSV-1 viral replication in Vero cells (in words) (HSV-1): no substantial reduction in viral replication
